Laboratory results reported in patent US20040009210A1, “Wound management products incorporating cationic compounds” (Kimberly-Clark Worldwide, Inc., priority 2002, published 2004).

Assay: Effective charge density of the cationic compound (measured)
Format: physicochemical

CCCCCCCC/C=C\CCCCCCCC(=O)NCC[N+]1=C(CCCCCCC/C=C\CCCCCCCC)N(C)CC1.COS(=O)(=O)[O-] [cationic softener, 1-methyl-2-Noroleyl-3-oleyl amidoethyl imidazolinium methosulfate]
effective charge density (measured): about 1300 microequivalents/gram
